± gives the expanded uncertainty stated by the source.
Details: Liquid, Closed cell (Static) method

FC(F)Cl [chlorodifluoromethane]
vapor or sublimation pressure (273 K): 495 ± 5 kPa | vapor or sublimation pressure (275 K): 528 ± 5 kPa | vapor or sublimation pressure (277 K): 562 ± 5 kPa | vapor or sublimation pressure (279 K): 599 ± 5 kPa | vapor or sublimation pressure (281 K): 637 ± 5 kPa | vapor or sublimation pressure (283 K): 677 ± 5 kPa | vapor or sublimation pressure (285.1 K): 718 ± 6 kPa | vapor or sublimation pressure (286.9 K): 761 ± 6 kPa | vapor or sublimation pressure (289 K): 807 ± 6 kPa | vapor or sublimation pressure (291.1 K): 855 ± 6 kPa | vapor or sublimation pressure (295.1 K): 955 ± 6 kPa

O=C=O [carbon dioxide]
vapor or sublimation pressure (273 K): 3387 ± 69 kPa | vapor or sublimation pressure (283 K): 4406 ± 89 kPa | vapor or sublimation pressure (293 K): 5627 ± 110 kPa | vapor or sublimation pressure (298.1 K): 6323 ± 130 kPa

FCC(F)(F)F [1,1,1,2-tetrafluoroethane]
vapor or sublimation pressure (258.2 K): 162 ± 5 kPa | vapor or sublimation pressure (262.2 K): 193 ± 5 kPa | vapor or sublimation pressure (272.2 K): 286 ± 5 kPa | vapor or sublimation pressure (282.6 K): 411 ± 5 kPa | vapor or sublimation pressure (292.9 K): 569 ± 5 kPa | vapor or sublimation pressure (302.7 K): 763 ± 6 kPa

FC(F)(F)C1(F)OC1(F)F (stereo unspecified) [2,2,3-trifluoro-3-(trifluoromethyl)oxirane]
vapor or sublimation pressure (273 K): 309 ± 5 kPa | vapor or sublimation pressure (278 K): 366 ± 6 kPa | vapor or sublimation pressure (283 K): 431 ± 6 kPa | vapor or sublimation pressure (288 K): 505 ± 6 kPa | vapor or sublimation pressure (293 K): 588 ± 6 kPa
